Experimental data: the CheMixHub drug solubility set

Experiment: xn = mol fraction of the nth substance listed, in the solute-free solvent

Cc1[nH]c(=O)c(C#N)cc1-c1ccncc1 + CN(C)C=O + O
solubility (g/100 g solution)
Conditions | 278.15 K | 283.15 K | 288.15 K | 293.15 K | 298.15 K | 303.15 K | 308.15 K | 313.15 K | 318.15 K | 323.15 K
x2 = 0.02666 | 0.00219 | 0.00258 | 0.00301 | 0.00349 | 0.00402 | 0.00455 | 0.00511 | 0.00573 | 0.0064 | 0.00714
x2 = 0.05806 | 0.00523 | 0.00608 | 0.00705 | 0.00812 | 0.00928 | 0.0104 | 0.0117 | 0.013 | 0.0144 | 0.016
x2 = 0.09556 | 0.00909 | 0.0105 | 0.0121 | 0.014 | 0.0159 | 0.0179 | 0.02 | 0.0222 | 0.0245 | 0.0271
x2 = 0.1412 | 0.0128 | 0.0148 | 0.0171 | 0.0197 | 0.0224 | 0.0253 | 0.0283 | 0.0314 | 0.0347 | 0.0384
x2 = 0.1978 | 0.0159 | 0.0184 | 0.0208 | 0.0242 | 0.028 | 0.0318 | 0.0357 | 0.0397 | 0.0439 | 0.0488
x2 = 0.27 | 0.0186 | 0.0214 | 0.0246 | 0.029 | 0.0328 | 0.0371 | 0.0419 | 0.047 | 0.0524 | 0.0585
x2 = 0.3652 | 0.0209 | 0.0244 | 0.028 | 0.0328 | 0.0376 | 0.043 | 0.0487 | 0.0547 | 0.0613 | 0.068
x2 = 0.4965 | 0.023 | 0.0268 | 0.0315 | 0.0364 | 0.0416 | 0.0476 | 0.0545 | 0.0615 | 0.0685 | 0.0771
x2 = 0.6893 | 0.0242 | 0.0285 | 0.033 | 0.0391 | 0.0448 | 0.0505 | 0.0577 | 0.0654 | 0.0732 | 0.0835
